These are literature values, as cited in patent publication US12496272B1, “Stable epinephrine suspension formulation for inhalation with HFO propellant” (Amphastar Pharmaceuticals, Inc., priority 2024, dated 2025).

In the case of `FCC(F)(F)F` [HFA-134a, 1,1,1,2-tetrafluoroethane], the “Log P (octanol/water)” value is 1.1. The Water solubility (at 25° C.) was 2220 at 25 °C ppm. For `FC(C(F)(F)F)C(F)(F)F` [HFA-227, 1,1,1,2,3,3,3-heptafluoropropane], the “Log P (octanol/water)” value was 2.1. Consider `F/C=C/C(F)(F)F` [HFO-1234ze(E), trans-1,3,3,3-tetrafluoropropene], for which the “Log P (octanol/water)” value is 1.3.
